Results on eleven molecules are retold here after patent publication US9598424B2 (Takeda Pharmaceutical Company Limited, priority 2014, dated 2017).

The assay addresses T1, Full length human TBK1 (Homo sapiens, UniProt Q9UHD2).
T1 construct: Full length human TBK1 with an N-terminal His-tag; His-tag (N); made in house; host or cells: Sf9 insect cells (baculovirus, pFastBac1)
T1 sequence (Q9UHD2 1-729): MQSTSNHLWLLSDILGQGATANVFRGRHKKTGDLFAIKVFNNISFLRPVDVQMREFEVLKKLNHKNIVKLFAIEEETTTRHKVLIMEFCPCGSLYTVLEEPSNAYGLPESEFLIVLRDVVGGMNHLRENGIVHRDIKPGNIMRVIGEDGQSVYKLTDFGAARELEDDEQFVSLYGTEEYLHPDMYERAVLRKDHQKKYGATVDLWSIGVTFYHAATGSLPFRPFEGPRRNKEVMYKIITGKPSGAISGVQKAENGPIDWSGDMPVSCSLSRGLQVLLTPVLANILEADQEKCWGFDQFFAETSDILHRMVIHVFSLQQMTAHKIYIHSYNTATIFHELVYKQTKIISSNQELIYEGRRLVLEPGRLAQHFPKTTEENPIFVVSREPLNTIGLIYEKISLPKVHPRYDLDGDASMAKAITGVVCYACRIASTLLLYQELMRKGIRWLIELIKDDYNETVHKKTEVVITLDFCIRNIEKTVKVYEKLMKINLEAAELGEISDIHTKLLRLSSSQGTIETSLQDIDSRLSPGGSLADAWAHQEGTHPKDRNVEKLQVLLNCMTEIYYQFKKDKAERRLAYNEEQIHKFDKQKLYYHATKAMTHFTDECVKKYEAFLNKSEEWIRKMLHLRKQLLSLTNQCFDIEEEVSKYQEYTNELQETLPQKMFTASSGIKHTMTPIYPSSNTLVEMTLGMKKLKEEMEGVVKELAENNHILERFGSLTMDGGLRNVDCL
Briefly: Inhibition of TBK1 Enzyme (Caliper microfluidic assay). In kind it is biochemical. Conditions: 25 μM ATP, 60 min at RT; -log(IC50), IC50 molar; read-out: TBK1 Inhibition (pIC50) (converted). The protocol:
Full length human TBK1 with an N-terminal His-tag was cloned into the pFastBacl vector and was transfected into Sf9 cells. 72 hours later the virus was harvested and amplified through two additional rounds of infections. Then 400 ml of the resulting virus stock was used to infect 10L of Sf9 cells at a density of 2×10^6 cells/ml. Cell pellets were harvested 48 hours post infection and were lysed by freeze-thaw, homogenization and sonication in binding buffer (25 mM Tris pH7.6, 1 M NaCl, 10 mM imidazole, 0.5 mM TCEP) plus 0.1% Triton X-100 and complete protease inhibitor cocktail. The lysate was spun and the supernatant was purified with a HisTrap FF crude and a Superdex 200 pg column.
TBK1 inhibition is determined using a 384 well plate format in buffer containing 20 mM Hepes, pH 7.4, 10 mM MgCl2, 1 mM EDTA, 0.01% Brij-L23, 1 mM DTT. Each test compound is prepared in DMSO using 2.5-fold serial dilutions for 11 data points, which are added to the buffer so that each dilution contains 1% DMSO. To each well is added 2 μL of 1 μm 5FAM-DRHDSGLDSMKDE-NH2 (in buffer), 2 μL of diluted test compound (1% DMSO in buffer), and 5 μL of 3 nM TBK1 and 25 μM ATP (in buffer). The reaction mixture is incubated at RT for 60 min, and quenched by adding 20 mM Hepes, pH 7.4, 10 mM MgCl2, 1 mM EDTA, 0.01% Brij-L23, 1 mM DTT+25 mM EDTA. To quantify the fluorescent-labeled substrate and product following reaction, the test plate is loaded on a Caliper LC-3000, which measures percent of conversion by microfluidic-based separation. Corresponding IC50 values are calculated by non-linear curve fitting of the compound concentrations and percent of inhibition to the standard IC50 equation and reported as pIC50, i.e., −log(IC50), where IC50 is the molar concentration.
`Cc1sc(C(=O)NCC(F)(F)F)nc1-c1ccc2nc(NC(=O)C3CC3)cn2n1` [Example 20, 4-(2-(cyclopropanecarboxamido)imidazo[1,2-b]pyridazin-6-yl)-5-methyl-N-(2,2,2-trifluoroethyl)thiazole-2-carboxamide]: the IC50 is 501 nM.
Under `Cc1sc(C(=O)NCC(F)(F)F)nc1-c1ccc2nc(NC(=O)C3CC3)cn2c1` [Example 31, 4-(2-(cyclopropanecarboxamido)imidazo[1,2-a]pyridin-6-yl)-5-methyl-N-(2,2,2-trifluoroethyl)thiazole-2-carboxamide] stands 398 nM; under `O=C(Nc1cn2cc(-c3csc(C(=O)N4CCC(CO)C4)n3)ccc2n1)C1CC1` (centres unmarked) [Example 100, N-(6-(2-(3-(hydroxymethyl)pyrrolidine-1-carbonyl)thiazol-4-yl)imidazo[1,2-a]pyridin-2-yl)cyclopropanecarboxamide], 200 nM; under `COC1CN(C(=O)c2nc(-c3ccc4nc(NC(=O)C5CC5)cn4c3)cs2)C1` [Example 101, N-(6-(2-(3-methoxyazetidine-1-carbonyl)thiazol-4-yl)imidazo[1,2-a]pyridin-2-yl)cyclopropanecarboxamide], 631 nM.
Under `NC(=O)[C@@H]1CC(F)(F)CN1C(=O)c1cc(-c2ccc3nc(NC(=O)C4CC4)cn3c2)cs1` [Example 82, (S)-1-(4-(2-(cyclopropanecarboxamido)imidazo[1,2-a]pyridin-6-yl)thiophene-2-carbonyl)-4,4-difluoropyrrolidine-2-carboxamide] stands 631 nM; under `COC1CCN(C(=O)c2cc(-c3ccc4nc(NC(=O)C5CC5)cn4c3)cs2)CC1` [Example 58, N-(6-(5-(4-methoxypiperidine-1-carbonyl)thiophen-3-yl)imidazo[1,2-a]pyridin-2-yl)cyclopropanecarboxamide], 794 nM; under `O=C(NCCO)c1nc(-c2ccc3nc(NC(=O)C4CC4)cn3c2)cs1` [Example 95, 4-(2-(cyclopropanecarboxamido)imidazo[1,2-a]pyridin-6-yl)-N-(2-hydroxyethyl)thiazole-2-carboxamide], 398 nM.
For `O=C(NCC(F)F)c1ccn(-c2ccc3nc(NC(=O)C4CC4)cn3n2)n1` [Example 37, 1-(2-(cyclopropanecarboxamido)imidazo[1,2-b]pyridazin-6-yl)-N-(2,2-difluoroethyl)-1H-pyrazole-3-carboxamide], the IC50 was 794 nM.
For `O=C(NCC(F)(F)F)c1cn(-c2ccc3nc(NC(=O)C4CC4)cn3c2)cn1` [Example 41, 1-(2-(cyclopropanecarboxamido)imidazo[1,2-a]pyridin-6-yl)-N-(2,2,2-trifluoroethyl)-1H-imidazole-4-carboxamide], the IC50 is 63.1 nM.
In the case of `O=C1CC(NC(=O)c2nc(-c3ccc4nc(NC(=O)C5CC5)cn4c3)cs2)CN1` (centres unmarked) [Example 99, 4-(2-(cyclopropanecarboxamido)imidazo[1,2-a]pyridin-6-yl)-N-(5-oxopyrrolidin-3-yl)thiazole-2-carboxamide] it was 251 nM.
In the case of `O=C(NCC(F)(F)F)c1ncc(-c2ccc3nc(NC(=O)C4CC4)cn3c2)s1` [Example 22, 5-(2-(cyclopropanecarboxamido)imidazo[1,2-a]pyridin-6-yl)-N-(2,2,2-trifluoroethyl)thiazole-2-carboxamide] it was 200 nM.
